Source: paper PMC7377239, “Cardiovascular Effects of Polychlorinated Biphenyls and Their Major Metabolites” (Environmental Health Perspectives, 2020)
Where two headings read alike, the source gives them in different places.

Tested on: iCell cardiomyocytes (human iPSC-derived cardiomyocytes)
Test: Intracellular Ca2+ flux / beating parameters in iCell cardiomyocytes (FLIPR tetra), 90 min or 24 h
Format: cell-based
Conditions: 0.00 µM = 100.00; for activity at 0.01 µM / activity at 0.1 µM / activity at 1 µM / activity at 10 µM / activity at 100 µM: Homo sapiens, Cardiomyocyte
Procedure, shortened: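 PODs were defined as the concentration crossing one SD of the vehicle-control means (0.5% DMSO) on four-parameter logistic fits of Ca2+ trace metrics (peak height, frequency, peak-spacing CV, decay/rise ratio). Traces came from 100 s, 8 Hz FLIPR reads at 37 °C on calcium-dye-loaded iCell cardiomyocytes. Before reading, cells were treated for 90 min or 24 h from 5× chemical plates spanning 0.05–500 µM, in triplicate.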

## Clc1ccc(Cl)c(-c2c(Cl)ccc(Cl)c2Cl)c1Cl [(+)-PCB 136, 2,2′,3,3′,6,6′-hexachlorobiphenyl]
0.01 µM, 24hrs
  cm.amp.avg.24hrs: 54.01
  cm.amp.cv.24hrs: 158.80
0.10 µM, 24hrs
  cm.amp.avg.24hrs: 107.99
  cm.amp.cv.24hrs: 72.89
  cm.bpm.24hrs: 96.42
  cm.decay.rise.24hrs: 106.79
  cm.spacing.cv.24hrs: 105.08
1.00 µM, 24hrs
  cm.amp.cv.24hrs: 92.90
  cm.bpm.24hrs: 94.51
  cm.decay.rise.24hrs: 114.76
  cm.spacing.cv.24hrs: 110.09
10.00 µM, 90min
  cm.bpm.90min: 82.76
  cm.decay.rise.90min: 115.77
10.00 µM, 24hrs
  cm.amp.avg.24hrs: 0.00
  cm.amp.cv.24hrs: 0.00
  cm.bpm.24hrs: 0.00
  cm.decay.rise.24hrs: 0.00
  cm.spacing.cv.24hrs: 0.00
1.5 h, 0.01 µM, 90min, read-out: cm.amp.avg.90min
  activity at 0.01 µM: 106%
1.5 h, 0.01 µM, 90min, read-out: cm.amp.cv.90min
  activity at 0.01 µM: 96.9%
1.5 h, 0.01 µM, 90min, read-out: cm.bpm.90min
  activity at 0.01 µM: 97.8%
1.5 h, 0.01 µM, 90min, read-out: cm.decay.rise.90min
  activity at 0.01 µM: 99%
1.5 h, 0.01 µM, 90min, read-out: cm.spacing.cv.90min
  activity at 0.01 µM: 101%
1.5 h, 0.10 µM, 90min, read-out: cm.amp.avg.90min
  activity at 0.1 µM: 107%
1.5 h, 0.10 µM, 90min, read-out: cm.amp.cv.90min
  activity at 0.1 µM: 112%
1.5 h, 0.10 µM, 90min, read-out: cm.bpm.90min
  activity at 0.1 µM: 96.5%
1.5 h, 0.10 µM, 90min, read-out: cm.decay.rise.90min
  activity at 0.1 µM: 99.7%
1.5 h, 0.10 µM, 90min, read-out: cm.spacing.cv.90min
  activity at 0.1 µM: 115%
1.5 h, 1.00 µM, 90min, read-out: cm.amp.avg.90min
  activity at 1 µM: 107%
1.5 h, 1.00 µM, 90min, read-out: cm.amp.cv.90min
  activity at 1 µM: 120%
1.5 h, 1.00 µM, 90min, read-out: cm.bpm.90min
  activity at 1 µM: 87.8%
1.5 h, 1.00 µM, 90min, read-out: cm.decay.rise.90min
  activity at 1 µM: 107%
1.5 h, 1.00 µM, 90min, read-out: cm.spacing.cv.90min
  activity at 1 µM: 107%
1.5 h, 10.00 µM, 90min, read-out: cm.amp.avg.90min
  activity at 10 µM: 94.4%
1.5 h, 10.00 µM, 90min, read-out: cm.amp.cv.90min
  activity at 10 µM: 114%
1.5 h, 10.00 µM, 90min, read-out: cm.spacing.cv.90min
  activity at 10 µM: 118%
1.5 h, 100.00 µM, 90min, read-out: cm.amp.avg.90min
  activity at 100 µM: 0%
1.5 h, 100.00 µM, 90min, read-out: cm.amp.cv.90min
  activity at 100 µM: 0%
1.5 h, 100.00 µM, 90min, read-out: cm.bpm.90min
  activity at 100 µM: 0%
1.5 h, 100.00 µM, 90min, read-out: cm.decay.rise.90min
  activity at 100 µM: 0%
1.5 h, 100.00 µM, 90min, read-out: cm.spacing.cv.90min
  activity at 100 µM: 0%
24 h, 0.01 µM, 24hrs, read-out: cm.bpm.24hrs
  activity at 0.01 µM: 105%
24 h, 0.01 µM, 24hrs, read-out: cm.decay.rise.24hrs
  activity at 0.01 µM: 93.3%
24 h, 0.01 µM, 24hrs, read-out: cm.spacing.cv.24hrs
  activity at 0.01 µM: 104%
24 h, 1.00 µM, 24hrs, read-out: cm.amp.avg.24hrs
  activity at 1 µM: 83.3%
24 h, 100.00 µM, 24hrs, read-out: cm.amp.avg.24hrs
  activity at 100 µM: 0%
24 h, 100.00 µM, 24hrs, read-out: cm.amp.cv.24hrs
  activity at 100 µM: 0%
24 h, 100.00 µM, 24hrs, read-out: cm.bpm.24hrs
  activity at 100 µM: 0%
24 h, 100.00 µM, 24hrs, read-out: cm.decay.rise.24hrs
  activity at 100 µM: 0%
24 h, 100.00 µM, 24hrs, read-out: cm.spacing.cv.24hrs
  activity at 100 µM: 0%

## Clc1ccc(Cl)c(-c2c(Cl)ccc(Cl)c2Cl)c1Cl [(-)-PCB 136, 2,2′,3,3′,6,6′-hexachlorobiphenyl]
0.01 µM, 90min
  cm.amp.avg.90min: 93.19
  cm.amp.cv.90min: 114.99
  cm.bpm.90min: 99.06
  cm.decay.rise.90min: 100.18
  cm.spacing.cv.90min: 110.22
0.01 µM, 24hrs
  cm.amp.avg.24hrs: 96.89
  cm.amp.cv.24hrs: 99.89
  cm.bpm.24hrs: 97.37
  cm.decay.rise.24hrs: 110.34
  cm.spacing.cv.24hrs: 99.92
0.10 µM, 90min
  cm.amp.avg.90min: 107.52
  cm.amp.cv.90min: 110.59
  cm.bpm.90min: 101.57
  cm.decay.rise.90min: 100.78
  cm.spacing.cv.90min: 107.82
0.10 µM, 24hrs
  cm.amp.avg.24hrs: 74.13
  cm.amp.cv.24hrs: 32.34
  cm.bpm.24hrs: 44.87
  cm.decay.rise.24hrs: 55.66
  cm.spacing.cv.24hrs: 50.62
1.00 µM, 90min
  cm.amp.avg.90min: 95.68
  cm.amp.cv.90min: 133.10
  cm.bpm.90min: 102.82
  cm.decay.rise.90min: 105.32
  cm.spacing.cv.90min: 97.68
1.00 µM, 24hrs
  cm.amp.avg.24hrs: 66.49
  cm.amp.cv.24hrs: 35.31
  cm.bpm.24hrs: 50.60
  cm.decay.rise.24hrs: 50.54
  cm.spacing.cv.24hrs: 53.09
10.00 µM, 90min
  cm.amp.avg.90min: 76.03
  cm.amp.cv.90min: 119.24
  cm.bpm.90min: 115.36
  cm.decay.rise.90min: 88.64
  cm.spacing.cv.90min: 116.95
10.00 µM, 24hrs
  cm.amp.avg.24hrs: 43.21
  cm.amp.cv.24hrs: 38.97
  cm.bpm.24hrs: 43.91
  cm.decay.rise.24hrs: 43.15
  cm.spacing.cv.24hrs: 54.11
100.00 µM, 90min
  cm.amp.avg.90min: 0.00
  cm.amp.cv.90min: 0.00
  cm.bpm.90min: 0.00
  cm.decay.rise.90min: 0.00
  cm.spacing.cv.90min: 0.00
100.00 µM, 24hrs
  cm.amp.avg.24hrs: 0.00
  cm.amp.cv.24hrs: 0.00
  cm.bpm.24hrs: 0.00
  cm.decay.rise.24hrs: 0.00
  cm.spacing.cv.24hrs: 0.00
